# Measured values taken from patent US20220325301A1, “AUXOTROPHIC SELECTION METHODS” (AUXOLYTIC LTD, priority 2019, published 2022).
# Assays:
# [1] = tested on: UMPS knockout H9 human embryonic stem cells (hESCs); test: Lineage-specific auxotrophy during beta cell differentiation (GFP ratio in mCherry-off vs mCherry-on cells, fluorescence microscopy); format: cell-based; conditions: uridine withdrawal at day 12
# Description: As a proof of concept, UMPS knockout cells were engineered to express insulin and were differentiated to pancreatic progenitor cells using an appropriate method as described, for example, in Ma et al. (2018), Pagliuca et al. (2014), and/or Rezania et al. (2014) discussed and incorporated herein. The UMPS gene was knocked out in H9 human embryonic stem cells (hESCs) according to the methods described herein. A GFP-Luciferase expression construct under regulation of a constitutive promoter was integrated by homologous recombination into the HBB locus (see, for example, Dever, Daniel P., et al. “CRISPR/Cas9 β-globin gene targeting in human haematopoietic stem cells.” Nature 539.7629 (2016): 384-389, the contents of which are incorporated herein by reference in their entirety). […] Cells were monitored and assessed for mCherry and UMPS expression on subsequent days up to day 25. The differentiation protocol was followed with cells either in the continuous presence of uridine through day 18 or through the end of the culture period, or through only day 12 (during Stage 4). mCherry and UMPS expression were assessed. An mCherry on vs. off threshold was defined to identify UMPS expressing cells (given UMPS expression is coupled to mCherry) using thresholding based on fluorescence images. […]
# Therefore, expression of GFP in mCherry negative cells, when uridine is present, was expected to be higher than the expression of GFP in mCherry negative cells when uridine is absent. […] The results are shown in Table 7, where the “Auxotrophy Metric” was calculated as the mean GFP ratio in uridine-withdrawn conditions divided by the mean GFP ratio in uridine-continued conditions: [(mean GFP(mCherry-Off)/mean GFP(mCherry-On)) uridine-withdrawn-conditions]/[(mean GFP(mCherry-Off)/mean GFP(mCherry-On)) uridine-continued conditions].
# UMPS knockout cells [2] = test: Split auxotrophy: selection of dual transgene integration (CD19/mCherry flow cytometry); format: cell-based, human; conditions: day 16
# Description: The UMPS locus is disrupted in the hESCs by electroporation of Cas9 RNP to insert an expression control sequence comprising a tissue-specific promoter into the genomic locus. The promoter will begin to instigate transcription due to interaction with endothelial tissue. For gene editing, hESCs are treated with 10 μm ROCK inhibitor (Y-27632) for 24 hours before electroporation. Cells at 70-80% confluence are harvested with ACCUTASE® solution (Life Technologies). 500,000 cells were used per reaction with a SpCas9 concentration of 150 μg/mL (Integrated DNA Technologies) and a Cas9:sgRNA molar ratio of 1:3 and electroporation performed in P3 Primary Cell solution (Lonza) in 16-well NUCLEOCUVETTE™ Strips in the 4D NUCLEOFECTOR system (Lonza). Immediately after electroporation, cells are transferred into one well of a MATRIGEL® protein mixture (Corning, Inc.)-coated 24 well plate containing 500 μl of mTeSR™ media (STEMCELL Technologies) with 10 μM Y-27632. Media was changed 24 hours after editing and Y-27632 is removed 48 hours after.
# Independent functional domains of UMPS, i.e. OPRT and ODC, are reintroduced into UMPS knockout cells according to Example 2 using two separate vectors. A first homologous recombination donor vector carrying OPRT and mCherry (SEQ ID NO: 43) comprises sequence encoding OPRT (SEQ ID NO: 4, encoding amino acid sequence of SEQ ID NO: 5), 2A linker (SEQ ID NO: 19, SEQ ID NO: 21, or SEQ ID NO: 23, encoding amino acid sequences of SEQ ID NO: 20, SEQ ID NO: 22, and SEQ ID NO: 24, respectively), and sequence encoding mCherry fluorescent protein (SEQ ID NO: 34 or SEQ ID NO: 35, each encoding amino acid sequence of SEQ ID NO: 36). Homologous recombination donor vector carrying ODC and CD19 (SEQ ID NO: 44) comprises sequence encoding tCD19 (SEQ ID NO: 37, encoding amino acid sequence of SEQ ID NO: 38), 2A linker, and sequence encoding ODC (SEQ ID NO: 6, encoding amino acid sequence of SEQ ID NO: 7). Expression of OPRT and ODC constructs can be driven by a eukaryotic promoter such as EF1a (SEQ ID NO: 31 or SEQ ID NO: 32). Homologous recombination vectors are co-targeted for integration into safe harbor locus CCR5 (using, for example, CCR5 left and right homology arms selected from SEQ ID NOs: 11-15 as described herein). Homologous recombination vectors can further include termination signals such as a bGH-PolyA termination signal (SEQ ID NO: 39 or SEQ ID NO: 40). Cells are cultured with and without uridine, and the percent of cells expressing both CD19 and mCherry (CD19+/mCherry+) is measured by flow cytometry over time.
# UMPS knockout cells [3] = test: Selection of cells re-expressing UMPS in a UMPS-/- background (% mCherry+ by flow cytometry); format: cell-based; conditions: after 14 days in culture
# Description: A construct (SEQ ID NO: 42) expressing mCherry and UMPS separated by a 2A linker sequence under control of a constitutive promoter (EF1a) delivered via DNA vector was inserted by electroporation into the CCR5 locus targeted using homologous recombination arms. Cells were grown in the presence of uridine to alleviate any selection pressure, then uridine was removed to select for cells successfully re-expressing UMPS. Cells were sorted by expression of mCherry using flow cytometry. After 14 days in culture, % mCherry+ cells was approximately 20% in the presence of uridine; % mCherry+ cells was approximately 90% in the absence of uridine.
substance,measurement,setting,value
"INS-mCherry-UMPS: tricistronic construct expressing insulin, mCherry and UMPS under endogenous insulin regulatory control sequences, integrated into the insulin locus","Auxotrophy Metric (mean GFP ratio mCherry-Off/mCherry-On, uridine-withdrawn divided by uridine-continued)",[1]; culture day 12,0.9904
same,"Auxotrophy Metric (mean GFP ratio mCherry-Off/mCherry-On, uridine-withdrawn divided by uridine-continued)",[1]; culture day 18,0.9827
same,"Auxotrophy Metric (mean GFP ratio mCherry-Off/mCherry-On, uridine-withdrawn divided by uridine-continued)",[1]; culture day 25,0.7261
"Split UMPS: two homologous recombination donor vectors, OPRT and mCherry (SEQ ID NO: 43) and ODC and CD19 (SEQ ID NO: 44), co-targeted to CCR5",% CD19+ only,UMPS knockout cells [2]; +Uridine,1.2%
same,% CD19+/mCherry+,UMPS knockout cells [2]; +Uridine,0.3%
same,% CD19-/mCherry-,UMPS knockout cells [2]; +Uridine,92.9%
same,% mCherry+ only,UMPS knockout cells [2]; +Uridine,5.6%
same,% CD19+ only,UMPS knockout cells [2]; No Uridine,0.1%
same,% CD19+/mCherry+,UMPS knockout cells [2]; No Uridine,94.7%
same,% CD19-/mCherry-,UMPS knockout cells [2]; No Uridine,0.1%
same,% mCherry+ only,UMPS knockout cells [2]; No Uridine,5.1%
"SEQ ID NO: 42: construct expressing mCherry and UMPS separated by a 2A linker under constitutive EF1a promoter, inserted into the CCR5 locus of UMPS knockout cells",% mCherry+ cells,UMPS knockout cells [3]; in the absence of uridine,approximately 90%
same,% mCherry+ cells,UMPS knockout cells [3]; in the presence of uridine,approximately 20%
